{"source": "patent US11708562B2", "about": "“Differentiation of human embryonic stem cells” (Janssen Biotech, Inc., priority 2006, dated 2023)", "system": "H9P49 and H1P46 embryonic stem cells", "assay": "Definitive endoderm on MATRIGEL: effective dose of activin A with GSK-3B inhibitor or Wnt-3A", "format": "cell-based, human", "from_the_text": "FIGS. 31A, 31B, 31C and 31D is for H9P49 cells and FIGS. 31E and 31F is for H1P46 cells."}
{"substance": "Activin A: a member of the TGFβ superfamily; growth factor (R&D Systems) used to differentiate human embryonic stem cells", "values": [{"measurement": "lineage formed at lower doses of activin A", "result": "formation of extraembryonic endoderm"}]}
